Measured values published in patent US20050267182A1, “Urea derivatives as FLT-3 modulators” (Ambit Biosciences Corporation, priority 2003, published 2005).

Experiments:
FLT3 = target: T1, FLT3 (Homo sapiens, UniProt P36888); test: Binding constant (Kd) measurement, phage-displayed kinase competition binding assay; conditions: for Binding Assay: FLT3(DKIN): FLT3(DKIN) construct; for Binding Assay: FLT3(JMminus): FLT3(JMminus) construct
T1 construct: FLT3(DKIN); made in house
T1 sequence (P36888 610-943 limits assumed): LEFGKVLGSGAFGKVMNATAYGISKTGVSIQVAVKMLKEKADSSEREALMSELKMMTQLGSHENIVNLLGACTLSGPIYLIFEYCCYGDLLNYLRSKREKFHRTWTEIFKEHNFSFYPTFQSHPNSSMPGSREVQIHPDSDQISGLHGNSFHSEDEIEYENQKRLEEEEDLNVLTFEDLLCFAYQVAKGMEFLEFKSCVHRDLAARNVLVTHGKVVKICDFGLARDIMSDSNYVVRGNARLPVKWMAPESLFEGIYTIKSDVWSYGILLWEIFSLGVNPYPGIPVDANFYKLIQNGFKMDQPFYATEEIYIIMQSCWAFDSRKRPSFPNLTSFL
Text: Binding Constant (Kd) Measurements for Small-Molecule-Kinase Interactions
The term “ND” represents non-determined values.

MV4,11 cells = test: FLT3 assay using MV4,11 cells (cellular proliferation, MTS); type: cell-based, human; conditions: cell assay code CS0001
Procedure, shortened: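 MV4,11 AML cells, […] switch to DMEM/10% FBS overnight, plated at 10,000 cells/well and exposed to serially diluted compounds in duplicate for 3 days at 37° C., 5% CO2. Proliferation read by MTS added for 2 h.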

CS0005 = test: Cell Assay: CS0005; type: cell-based; conditions: cell assay code CS0005
CS0002 = test: Cell Assay: CS0002; type: cell-based; conditions: cell assay code CS0002

Row | Compound | Binding Assay: FLT3(DKIN) (FLT3) | Cell Assay: CS0001:IC50 (MV4,11 cells) | Cell Assay: CS0005:IC50 (CS0005) | Cell Assay: CS0002:IC50 (CS0002) | IC50 (CS0002) | Binding Assay: FLT3(JMminus) (FLT3)
1 | COc1cc2ncnc(Nc3ccc(NC(=O)Nc4cc(C(C)(C)C)on4)cc3)c2cc1OC [Compound O5] | + + + + | + + + + | + + + + | + + |  | 
2 | CC(C)(C)c1cc(NC(=O)Nc2ccc(NC(=O)c3cnnc4ccccc34)cc2)no1 [Compound N147] | + + + + | + + + + | + + + + | + + |  | 
3 | CC(C)(C)c1cc(NC(=O)Nc2ccc(NC(=O)c3csc(-c4ccncc4)n3)cc2)no1 [Compound N16] | + + + + | + + + + | + + + |  | > 10 µM | 
4 | CC(C)(C)c1cc(NC(=O)Nc2ccc(NC(=O)c3cn4c(n3)sc3ccccc34)cc2)no1 [Compound N73] |  | + + + + | + + + + | + + + |  | + + + +
5 | CSc1ncc(Br)c(C(=O)Nc2ccc(NC(=O)Nc3cc(C(C)(C)C)on3)cc2)n1 [Compound N114] | + + + + | + + + + | + + + | + + |  | 
6 | CC(C)(C)c1cc(NC(=O)Nc2ccc(NC(=O)c3ccc4ncccc4c3)cc2)no1 [Compound N151] | + + + + | + + + + | + + + + |  | > 10 µM | 
7 | COC(=O)c1ccc(C(=O)Nc2ccc(NC(=O)Nc3cc(C(C)(C)C)on3)cc2)nc1 [Compound N113] | + + + + | + + + + | + + + + |  | > 10 µM | 
8 | CC(C)(C)c1cc(NC(=O)Nc2ccc(NC(=O)c3cn4cc(Cl)ccc4n3)cc2)no1 [Compound N3] | + + + + | + + + + | + + + + | + + |  | 
9 | CC(C)(C)c1cc(NC(=O)Nc2ccc(NC(=O)c3cn4nc(Cl)ccc4n3)cc2)no1 [Compound N9] | + + + + | + + + + | + + + + | + + |  | 
10 | Cc1cc(C)nc(N(C)c2ccc(C(=O)Nc3ccc(NC(=O)Nc4cc(C(C)(C)C)on4)cc3)cc2)n1 [Compound N50] | + + + + | + + + + | + + + | + + |  | 
11 | COc1cc2nc(Cl)nc(Nc3ccc(NC(=O)Nc4cc(C(C)(C)C)on4)cc3)c2cc1OC [Compound O1, 1-(4-(2-chloro-6,7-dimethoxyquinazolin-4-ylamino)phenyl)-3-(5-tert-butylisoxazol-3-yl)urea] | + + + + | + + + + | + + + + | + + |  | 
12 | CC(C)(C)c1cc(NC(=O)Nc2ccc(CCc3ccccc3)cc2)no1 [Compound A15] | + + + + | + + + + | + + + | + + |  | 
13 | CC(C)(C)c1cc(NC(=O)Nc2ccc(NC(=O)c3cscn3)cc2)no1 [Compound N57] | + + + + | + + + + | + + + + |  | > 10 µM | 
14 | Cc1cccc(C(=O)Nc2ccc(NC(=O)Nc3cc(C(C)(C)C)on3)cc2)n1 [Compound N121] | + + + + | + + + + | + + + + | + + |  | 
15 | CC(C)(C)c1cc(NC(=O)Nc2ccc(OCC3CCC3)cc2)no1 [Compound G39] | + + + + | + + + + | + + + | + + |  | 
16 | CC(C)(C)c1cc(NC(=O)Nc2ccc(NC(=O)c3cnccn3)cc2)no1 [Compound N136] | + + + + | + + + + | + + + + |  | > 10 µM | 
17 | COc1cc(C(=O)Nc2ccc(NC(=O)Nc3cc(C(C)(C)C)on3)cc2)nc(OC)n1 [Compound N162] |  | + + + + | + + + + | + + |  | + + + +
18 | Cc1ccc2[nH]c(C(=O)Nc3ccc(NC(=O)Nc4cc(C(C)(C)C)on4)cc3)cc2c1 [Compound N127] |  | + + + + | + + + + | + + |  | + + + +
19 | CC(C)(C)c1cc(NC(=O)Nc2ccc(OCC3CC3)cc2)no1 [Compound G37] | + + + + | + + + + | + + + | + + |  | 
20 | CC(C)(C)c1cc(NC(=O)Nc2ccc(OCCc3ccncc3)cc2)no1 [Compound G22] | + + + + | + + + + | + + + + |  | > 10 µM | 
21 | CC(C)(C)c1cc(NC(=O)Nc2ccc(NC(=O)CSCC(=O)Nc3ccccc3)cc2)no1 [Compound N72] |  | + + + + | + + + + | + + |  | + + + +
22 | CC(C)(C)c1cc(NC(=O)Nc2ccc(OC/C=C/c3ccccc3Cl)cc2)no1 [Compound G26] | + + + + | + + + + | + + + + | + + |  | 
23 | CC(C)(C)c1cc(NC(=O)Nc2ccc(NC(=O)c3ccc4ccccc4n3)cc2)no1 [Compound N143] | + + + + | + + + + | + + + + | + + |  | 
24 | CC(C)(C)c1cc(NC(=O)Nc2ccc(NC(=O)c3cc4cccc5c4n(c3=O)CC5)cc2)no1 [Compound N60] | + + + + | + + + + | + + + + |  | > 10 µM | 
25 | CC(C)(C)c1cc(NC(=O)Nc2ccc(NC(=O)c3cccc4cccnc34)cc2)no1 [Compound N115] | + + + + | + + + + | + + + + | + + + |  | 
26 | CC(=O)c1ccc(N2CCC(C(=O)Nc3ccc(NC(=O)Nc4cc(C(C)(C)C)on4)cc3)CC2)cc1 [Compound N65] | + + + + | + + + + | + + + |  | > 10 µM | 
27 | CC(C)(C)c1cc(NC(=O)Nc2ccc(OCc3cccc(F)c3)cc2)no1 [Compound G14] | + + + + | + + + + | + + + |  |  | 
28 | CC(C)(C)c1cc(NC(=O)Nc2ccc(OCc3ccccc3)cc2)no1 [Compound G31] | + + + + | + + + + | + + + |  |  | 
29 | Cn1nc(C(C)(C)C)cc1C(=O)Nc1ccc(NC(=O)Nc2cc(C(C)(C)C)on2)cc1 [Compound N10] | + + + + | + + + | + + + |  |  | 
30 | CC(C)(C)c1cc(NC(=O)Nc2ccc(NC(=O)c3cc4ccccc4cn3)cc2)no1 [Compound N106] |  |  | + + + + |  | > 10 µM | 
